Laboratory results taken from patent publication US20030232340A1 (priority 2002, published 2003).

Molecular target: T1, Concanavalin A (Canavalia ensiformis, UniProt P02866)
T1 construct: purchased Sigma C-5275
Assay: Homogeneous cubic phase dispersion assay: displacement of biotinylated mannotriose-avidin/HRP, Dextran Blue detection
Type: binding
Details: 500 microliters of saturated solution added to 3.0 ml
Method: Experimental Results—A cubic phase was first prepared by mixing 0.752 grams of Pluronic P123 (an insoluble surfactant), 0.705 grams of linalool, and 0.703 grams of water. An amount of 1.005 grams of this cubic phase was put in a glass flask together with 0.054 grams of the rhamnolipid surfactant JBR-99 (Jeneil Biosurfactant, Inc.) and 35 ml of pH 4.5 acetate buffer containing 4 mM MnCl2 and 4 mM CaCl2. The flask was then sonicated to disperse the cubic phase. Following this, the dispersion was microfluidized in a model 110S Microfluidizer (Microfluidics, Inc.) to a particle size that was fine enough where the absorbance measured on an Ultrospec 3000 UV-Vis spectrometer, at a wavelength of 620 nm, was about 0.2 absorbance units.
The following reagents were then added to 2 ml of the cubic phase dispersion: […]
After the addition of the Dextran Blue-based Detection System, absorbance readings at 620 nm were monitored continuously. After the readings stabilized at 0.40 absorbance units, 500 microliters of Displacement Solution were added. […]
Upon addition of this alpha methylmannoside—the analyte—the absorbance dropped from 0.40 to 0.26 absorbance units. […] The majority of the decrease in absorbance was due to the enzymatic action of displaced HRP on the Dextran Blue.

Structure (SMILES): COC1O[C@H](CO)[C@@H](O)[C@H](O)[C@@H]1O (stereo partly drawn) [alpha methylmannoside]
- decrease in absorbance at 620 nm (14% expected from dilution alone): 35%
- absorbance at 620 nm after addition of analyte (reading before addition 0.40): 0.26 absorbance units
